In ChEMBL document CHEMBL4196018, “New antitumor anthra[2,3-b]furan-3-carboxamides: Synthesis and structure-activity relationship” (Eur J Med Chem, 2018):
Active and inactive are the calls of the source. The rule behind the calls is not given here.

What was measured:
[1] = Resistance index, ratio of IC50 for p53 knockout human HCT116 cells to IC50 for human HCT116 cells; format: functional
[2] = test system: L1210; assay: Antiproliferative activity against mouse L1210 cells after 48 hrs by MTT assay; format: functional, cell-based; details: L1210, 48 h
[3] = test system: HCT-116; assay: Antiproliferative activity against human HCT116 cells after 72 hrs by MTT assay; format: functional, cell-based; details: HCT-116, 72 h
[4] = test system: HeLa; assay: Antiproliferative activity against human HeLa cells after 72 hrs by MTT assay; format: functional, cell-based
[5] = test system: CCRF-CEM; assay: Antiproliferative activity against human CEM cells after 72 hrs by MTT assay; format: functional, cell-based
[6] = test system: K562; assay: Antiproliferative activity against human K562 cells after 72 hrs by MTT assay; format: functional, cell-based; details: K562, 72 h
[7] = Resistance index, ratio of IC50 for human K562/4 cells to IC50 for human K562 cells; format: functional
[8] = Antiproliferative activity against human K562/4 cells after 72 hrs by MTT assay; format: functional, cell-based; details: K562/4, 72 h
[9] = test system: HCT-116; assay: Antiproliferative activity against p53 knockout human HCT116 cells after 72 hrs by MTT assay; format: functional, cell-based; details: HCT-116, 72 h
[10] = Substrate activity at P-gp in human K562/4 cells assessed as test compound accumulation at 1 uM after 1 to 24 hrs by flow cytometry; format: ADME, cell-based
[11] = Drug uptake in human K562 cells at 2 uM after 1 to 24 hrs by flow cytometry; format: ADME, cell-based; details: k562, 2 µM
[12] = Substrate activity at P-gp in human K562/4 cells assessed as test compound accumulation at 2 uM after 1 to 24 hrs by flow cytometry; format: ADME, cell-based
[13] = Substrate activity at P-gp in human K562/4 cells assessed as test compound accumulation at 2 uM after 1 to 24 hrs in presence of P-gp inhibitor tariquidar by flow cytometry; format: ADME, cell-based
[14] = molecular target: T1, DNA topoisomerase 1 (Homo sapiens) (UniProt P11387); assay: Inhibition of human topoisomerase-1 using supercoiled pBR322 DNA as substrate after 30 mins by agarose gel electrophoresis method
T1 sequence (whole entry): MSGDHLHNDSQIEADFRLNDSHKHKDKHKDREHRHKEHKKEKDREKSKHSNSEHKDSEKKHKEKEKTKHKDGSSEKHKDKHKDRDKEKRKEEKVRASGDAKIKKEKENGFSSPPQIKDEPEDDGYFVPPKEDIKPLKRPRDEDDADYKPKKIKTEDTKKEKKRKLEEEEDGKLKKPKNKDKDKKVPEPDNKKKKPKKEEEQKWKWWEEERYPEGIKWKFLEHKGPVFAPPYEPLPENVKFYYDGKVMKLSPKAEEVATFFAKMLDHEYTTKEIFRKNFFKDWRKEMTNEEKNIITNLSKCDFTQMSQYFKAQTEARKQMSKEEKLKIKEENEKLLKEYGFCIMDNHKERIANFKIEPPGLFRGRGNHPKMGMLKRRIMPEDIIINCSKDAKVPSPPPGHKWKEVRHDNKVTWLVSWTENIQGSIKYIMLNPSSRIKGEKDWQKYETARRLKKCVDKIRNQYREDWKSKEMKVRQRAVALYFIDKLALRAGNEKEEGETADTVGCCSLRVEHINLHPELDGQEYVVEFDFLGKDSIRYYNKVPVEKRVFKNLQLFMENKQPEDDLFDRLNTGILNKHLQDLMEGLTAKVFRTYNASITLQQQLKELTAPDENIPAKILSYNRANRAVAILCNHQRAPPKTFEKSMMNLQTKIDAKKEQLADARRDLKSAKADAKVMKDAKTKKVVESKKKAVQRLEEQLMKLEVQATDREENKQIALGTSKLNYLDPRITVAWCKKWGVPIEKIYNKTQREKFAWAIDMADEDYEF

[15] = test system: MKN-45; assay: Induction of apoptosis in human MKN45 cells after 24 hrs by Annexin V-FITC staining based flow cytometry; format: functional, cell-based
[16] = test system: Lymphocyte; assay: Cytotoxicity against human lymphocytes assessed as reduction in cell viability at 25 uM after 72 hrs by MTT assay; format: cell-based
[17] = test system: TMK-1; assay: Induction of ROS generation in human TMK1 cells at 0.1 to 1 uM after 30 mins by H2DCFDA staining based flow cytometry; format: functional, cell-based
[18] = test system: MKN-45; assay: Induction of apoptosis in human MKN45 cells at 1 uM after 24 hrs by Annexin V-FITC staining based flow cytometry relative to control; format: functional
[19] = test system: MKN-45; assay: Induction of ROS generation in human MKN45 cells at 0.1 to 1 uM after 30 mins by H2DCFDA staining based flow cytometry; format: functional, cell-based
[20] = test system: TMK-1; assay: Induction of apoptosis in human TMK1 cells after 24 hrs by Annexin V-FITC staining based flow cytometry; format: functional, cell-based
[21] = test system: TMK-1; assay: Induction of apoptosis in human TMK1 cells at 1 uM after 24 hrs by Annexin V-FITC staining based flow cytometry relative to control; format: functional
[22] = molecular target: T1, DNA topoisomerase 1 (Homo sapiens); assay: Inhibition of human topoisomerase-1 at 1 to 30 uM using supercoiled pBR322 DNA as substrate after 30 mins by agarose gel electrophoresis method
[23] = species: Homo sapiens; assay: Cell cycle arrest in human K562/4 cells at 1 uM up to 48 hrs by propidium iodide staining based flow cytometry; format: functional
[24] = test system: K562; assay: Cell cycle arrest in human K562 cells at 1 uM up to 48 hrs by propidium iodide staining based flow cytometry; format: functional

Row | IC50 [2] [µM] | IC50 [3] [µM] | IC50 [4] [µM] | IC50 [5] [µM] | IC50 [6] [µM] | IC50 [9] [µM] | SMILES | Ratio IC50 [1] | Ratio IC50 [7] | IC50 [8] [µM] | further results
1 | 3.1 | 7.6 | 3.7 | 4 | 9.2 | 5.4 | Cc1oc2c(N)c3c(c(N)c2c1C(=O)N1CC[C@H](N)C1)C(=O)c1ccccc1C3=O | 0.7 | 0.9 | 8.3 | 
2 | 1 | 0.8 | 2 | 1 | 0.9 | 1 | O=C1c2ccccc2C(=O)c2c1c(O)c1occ(C(=O)NC3CCNC3)c1c2O (racemic) | 1.3 | 5 | 4.5 | 
3 | 4.4 | 3.2 | 2.3 | 3.9 | 1.3 | 2.4 | Cc1oc2c(O)c3c(c(O)c2c1CN1CC[C@H](N)C1)C(=O)c1ccccc1C3=O | 0.8 | 1.4 | 1.8 | 
4 | 0.7 | 2.8 | 1 | 1.3 | 1.1 | 3.4 | N[C@H]1CCN(C(=O)c2coc3c(O)c4c(c(O)c23)C(=O)c2ccccc2C4=O)C1 | 1.2 | 1.3 | 1.5 | inhibition [14]: Dose-dependent effect; Drug uptake [11]: Active; Activity [15]: Dose-dependent effect; Activity [16]: Non-Toxic; Activity [12]: Not Active; Activity [17]: Active; Activity [18]: 60 - 90%; Activity [19]: Active; Activity [20]: Dose-dependent effect; Activity [21]: 60 - 90%
5 | 0.6 | 1.2 | 0.7 | 0.5 | 0.9 | 1.3 | Cc1oc2c(O)c3c(c(O)c2c1C(=O)N1CC[C@H](N)C1)C(=O)c1ccccc1C3=O | 1.1 | 1.5 | 1.4 | inhibition [22]: Active; Activity [15]: Dose-dependent effect; Activity [17]: Active; Activity [18]: 60 - 90%; Activity [19]: Active; Activity [20]: Dose-dependent effect; Activity [21]: 60 - 90%
6 | 0.9 | 4.2 | 1.1 | 0.8 | 1.1 | 4 | O=C1c2ccccc2C(=O)c2c1c(O)c1occ(C(=O)NC3CCNCC3)c1c2O | 1 | 2.3 | 2.5 | 
7 | 20 | 41 | 27.9 | 23.2 | 28.6 | 50 | COc1c2c(c(OC)c3c(C(=O)N4CC[C@H](N)C4)c(C)oc13)C(=O)c1ccccc1C2=O | 1.2 | 1.4 | 38.7 | 
8 | 3.5 | 5.9 | 5 | 4.6 | 2.9 | 5.8 | CN[C@H]1CCN(C(=O)c2coc3c(O)c4c(c(O)c23)C(=O)c2ccccc2C4=O)C1 | 1 | 1.9 | 5.3 | 

Continued, molecule first:

Row | SMILES | IC50 [2] [µM] | IC50 [3] [µM] | IC50 [4] [µM] | IC50 [5] [µM] | IC50 [6] [µM] | IC50 [9] [µM] | Ratio IC50 [1] | Ratio IC50 [7] | IC50 [8] [µM] | further results
9 | Cc1oc2c(Cl)c3c(c(Cl)c2c1C(=O)N1CC[C@H](N)C1)C(=O)c1ccccc1C3=O | 1.5 | 4.5 | 5 | 3.5 | 3.8 | 4 | 0.9 | 1.4 | 5.3 | 
10 | NC1CCN(C(=O)c2coc3c(O)c4c(c(O)c23)C(=O)c2ccccc2C4=O)CC1 | 2.4 | 6 | 4.2 | 4 | 2.3 | 10 | 1.7 | 4.2 | 9.6 | 
11 | Cc1oc2c(O)c3c(c(O)c2c1CN1CC[C@@H](N)C1)C(=O)c1ccccc1C3=O | 4.3 | 2.2 | 2.8 | 4.3 | 1.2 | 2.2 | 1 | 1.6 | 1.9 | 
12 | COc1cc2c(cc1OC)CN(CCc1ccc(NC(=O)c3cc(OC)c(OC)cc3NC(=O)c3cnc4ccccc4c3)cc1)CC2 |  |  |  |  |  |  |  |  |  | Activity [10]: Not Active
13 | COc1cccc2c1C(=O)c1c(O)c3c(c(O)c1C2=O)C[C@@](O)(C(=O)CO)C[C@@H]3O[C@H]1C[C@H](N)[C@H](O)[C@H](C)O1 [DOXORUBICIN] |  |  |  |  |  |  |  |  | 9.8 | Drug uptake [11]: Active; Activity [12]: Active; Activity [13]: Not Active
14 | N[C@@H]1CCN(C(=O)c2coc3c(O)c4c(c(O)c23)C(=O)c2ccccc2C4=O)C1 | 2.5 | 5 | 3.3 | 4 | 2.3 | 5.1 | 1 | 1.6 | 3.7 | inhibition [14]: Dose-dependent effect
15 | CN1CCN(NC(=O)c2coc3c(O)c4c(c(O)c23)C(=O)c2ccccc2C4=O)CC1 | 2 | 0.8 | 2.2 | 3.2 | 1.1 | 0.8 | 1 | 1.4 | 1.5 | 
16 | NC1CCCN(C(=O)c2coc3c(O)c4c(c(O)c23)C(=O)c2ccccc2C4=O)C1 (racemic) | 2 | 3 | 2.3 | 4 | 1.3 | 2.5 | 0.8 | 2 | 2.6 | 
17 | N[C@H]1CCN(C(=O)c2c(C(F)(F)F)oc3c(O)c4c(c(O)c23)C(=O)c2ccccc2C4=O)C1 | 1.7 | 5.3 | 4.4 | 4 | 3.6 | 4.6 | 0.9 | 0.6 | 2.2 | Activity [23]: Active; inhibition [22]: inactive; Drug uptake [11]: Active; Activity [24]: Active; Activity [12]: Not Active
